Source: US6656940B2, “Tricyclic quinoxaline derivatives as protein tyrosine kinase inhibitors” (Sugen, Inc., priority 1997, dated 2003)

How the values were obtained:
FLK-1 receptor = biological target: T1, FLK-1 receptor (Mus musculus, UniProt P35918); assay: FLK-1 ELISA (cellular/catalytic); format: cell-based; conditions: 50% inhibition of PTK activity compared to that in a control; read-out: FLK KINASE IC50
T1 construct: expressed in transfected cells; host or cells: NIH3T3 C7#3 cells
Description: (§1) The cellular/catalytic assays described herein are performed in an ELISA format. The general procedure is as follows: a compound is introduced to cells expressing the test kinase, either naturally or recombinantly, for a selected period of time after which, if the test kinase is a receptor, a ligand known to activate the receptor's activity is added. The cells are lysed and the lysate is transferred to the wells of an ELISA plate previously coated with a specific antibody recognizing the substrate of the enzymatic phosphorylation reaction. Non-substrate components of the cell lysate are washed away and the amount of phosphorylation on the substrate is detected with an antibody specifically recognizing phosphotyrosine and is compared with that of control cells that were not contacted with the test compound.
An ELISA assay is conducted to measure the kinase activity of the FLK-1 receptor and more specifically, the inhibition or activation of TK activity on the FLK-1 receptor. Specifically, the following assay can be conducted to measure kinase activity of the FLK-1 receptor in cells genetically engineered to express Flk-1.
k. NIH3T3 C7#3 Cells (FLK-1 expressing cells);
1. Coat Corning 96-well ELISA plates with 1.0 μg per well Cappel Anti-rabbit IgG antibody in 0.1M Na2CO3 pH 9.6. Bring final volume to 150 μl per well. Coat plates overnight at 4° C. […]

human EGF-R = biological target: T2, human EGF-R (Homo sapiens, UniProt P00533); assay: EGF Receptor ELISA (cellular/catalytic); format: cell-based; conditions: 50% inhibition of PTK activity compared to that in a control; read-out: EGFR KINASE IC50
T2 construct: expressed in transfected cells; host or cells: NIH 3T3/C7 cell line
T2 sequence (P00533 25-1210): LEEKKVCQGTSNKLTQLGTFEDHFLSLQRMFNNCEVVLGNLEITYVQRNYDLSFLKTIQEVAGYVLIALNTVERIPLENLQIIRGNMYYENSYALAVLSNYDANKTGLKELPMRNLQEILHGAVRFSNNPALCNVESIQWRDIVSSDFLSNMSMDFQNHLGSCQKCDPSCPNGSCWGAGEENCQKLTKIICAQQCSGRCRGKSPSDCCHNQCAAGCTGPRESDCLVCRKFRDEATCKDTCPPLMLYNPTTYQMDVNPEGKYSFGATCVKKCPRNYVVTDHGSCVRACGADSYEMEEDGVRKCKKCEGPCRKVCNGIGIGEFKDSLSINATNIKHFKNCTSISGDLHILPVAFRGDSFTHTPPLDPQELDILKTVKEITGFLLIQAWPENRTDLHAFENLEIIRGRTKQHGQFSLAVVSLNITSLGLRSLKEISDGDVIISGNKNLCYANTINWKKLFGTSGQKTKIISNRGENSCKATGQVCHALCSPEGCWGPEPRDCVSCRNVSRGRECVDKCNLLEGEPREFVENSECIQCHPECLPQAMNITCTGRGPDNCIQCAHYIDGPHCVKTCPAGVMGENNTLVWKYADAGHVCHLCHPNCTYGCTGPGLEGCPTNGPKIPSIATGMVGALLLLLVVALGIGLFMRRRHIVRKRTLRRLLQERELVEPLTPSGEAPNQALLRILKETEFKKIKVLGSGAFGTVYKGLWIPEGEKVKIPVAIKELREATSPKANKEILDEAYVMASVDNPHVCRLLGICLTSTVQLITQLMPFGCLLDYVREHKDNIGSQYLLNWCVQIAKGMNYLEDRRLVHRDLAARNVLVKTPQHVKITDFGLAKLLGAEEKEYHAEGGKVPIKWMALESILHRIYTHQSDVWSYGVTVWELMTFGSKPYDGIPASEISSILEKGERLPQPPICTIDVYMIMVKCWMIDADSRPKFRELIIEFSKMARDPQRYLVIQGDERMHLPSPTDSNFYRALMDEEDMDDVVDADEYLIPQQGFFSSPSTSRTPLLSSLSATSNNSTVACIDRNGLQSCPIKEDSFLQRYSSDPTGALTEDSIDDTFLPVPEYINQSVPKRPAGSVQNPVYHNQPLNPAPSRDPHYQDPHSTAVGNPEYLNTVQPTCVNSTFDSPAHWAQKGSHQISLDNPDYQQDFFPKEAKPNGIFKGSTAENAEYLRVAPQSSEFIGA
Description: as §1
EGF Receptor kinase activity in cells genetically engineered to express human EGF-R can be measured as described below:
1. NIH 3T3/C7 cell line (Honegger, et al., Cell 51:199-209, 1987) can be use for this assay.
3. Resuspend cells in seeding medium (DMEM, 0.5% bovine serum), and count the cells using trypan blue. […]
12. The maximal phosphotyrosine signal is determined by subtracting the value of the negative controls from the positive controls. The percent inhibition of phosphotyrosine content for extract-containing wells is then calculated, after subtraction of the negative controls.

T1 sequence (P35918 20-1345): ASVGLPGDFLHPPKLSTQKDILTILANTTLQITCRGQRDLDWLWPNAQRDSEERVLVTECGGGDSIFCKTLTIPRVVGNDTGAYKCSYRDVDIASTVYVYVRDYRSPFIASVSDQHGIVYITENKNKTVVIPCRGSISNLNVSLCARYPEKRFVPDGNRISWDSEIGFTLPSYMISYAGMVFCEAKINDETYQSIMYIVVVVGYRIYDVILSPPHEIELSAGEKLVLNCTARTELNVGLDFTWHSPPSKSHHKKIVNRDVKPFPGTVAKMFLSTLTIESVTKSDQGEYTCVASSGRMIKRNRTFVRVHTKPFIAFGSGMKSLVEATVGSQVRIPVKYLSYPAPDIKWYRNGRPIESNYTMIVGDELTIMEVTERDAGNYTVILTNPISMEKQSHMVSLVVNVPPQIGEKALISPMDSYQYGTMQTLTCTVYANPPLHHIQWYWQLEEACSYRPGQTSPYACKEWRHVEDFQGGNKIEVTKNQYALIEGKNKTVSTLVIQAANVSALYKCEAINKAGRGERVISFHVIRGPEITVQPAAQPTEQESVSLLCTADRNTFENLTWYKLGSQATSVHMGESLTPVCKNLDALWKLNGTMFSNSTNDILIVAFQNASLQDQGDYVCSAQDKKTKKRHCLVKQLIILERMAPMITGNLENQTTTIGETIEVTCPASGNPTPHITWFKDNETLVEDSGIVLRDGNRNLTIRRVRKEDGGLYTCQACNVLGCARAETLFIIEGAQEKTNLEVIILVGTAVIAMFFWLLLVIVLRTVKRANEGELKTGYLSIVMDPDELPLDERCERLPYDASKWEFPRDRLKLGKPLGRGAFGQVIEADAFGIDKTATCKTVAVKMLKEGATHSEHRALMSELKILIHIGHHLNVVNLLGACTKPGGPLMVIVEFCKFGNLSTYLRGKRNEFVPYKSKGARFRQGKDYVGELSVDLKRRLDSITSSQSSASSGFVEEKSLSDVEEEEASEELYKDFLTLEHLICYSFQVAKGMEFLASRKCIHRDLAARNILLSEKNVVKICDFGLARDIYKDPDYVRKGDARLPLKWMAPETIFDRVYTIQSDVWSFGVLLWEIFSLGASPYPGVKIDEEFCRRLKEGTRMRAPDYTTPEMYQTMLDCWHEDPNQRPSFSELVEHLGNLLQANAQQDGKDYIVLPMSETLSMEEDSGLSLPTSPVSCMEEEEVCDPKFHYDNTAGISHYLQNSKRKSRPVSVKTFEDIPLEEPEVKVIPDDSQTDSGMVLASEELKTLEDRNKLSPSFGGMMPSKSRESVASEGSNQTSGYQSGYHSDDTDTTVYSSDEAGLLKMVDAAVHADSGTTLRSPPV

Question: With `Cc1nc2c(nc1C)CC1=NC(c3ccccc3)=NC1=C2` [6,7-dimethyl-2-phenylimidazo[4,5-g]quinoxaline] as the compound, how does the IC50 (FLK-1 receptor) read?
Answer: The IC50 was 88.4 µM.

Question: And the IC50 (human EGF-R)?
Answer: The IC50 was over 100 µM.
